For orientation: CC50 means the concentration giving 50% cytotoxicity. Read a high CC50 as lower toxicity to the cells.

From PMC7661526, “Antibiofilm effects of N,O-acetals derived from 2-amino-1,4-naphthoquinone are associated with downregulation of important global virulence regulators in methicillin-resistant Staphylococcus aureus” (Scientific Reports, 2020) come the findings set out here.

Data set [1] deals with S. aureus ATCC 25923. The data set is described as follows: MIC, broth microdilution. Type of data set: cell-based, Staphylococcus aureus. The source says: (§1) Strain representatives of six globally spread clones/lineages of MRSA were used in this study to test the antimicrobial activity of the N,O-acetal derivatives against MRSA: NY/Japan-USA100/ST5-SCCmecII (strain CR15-071), USA300/ST8-SCCmecIV (strain USA300-0114), USA400/ST1-SCCmecIV (strain USA400-0051), Brazilian epidemic clone-BEC/ST239-SCCmecIII (strain BMB9393), pediatric clone-USA800/ST5-SCCmecIV (strain USA800-0179), and OSPC-USA1100/ST30-SCCmecIV (strain 07-040). The S. aureus ATCC 25923 was used as a control for the experiment of drug susceptibility. […] For biofilm production, tryptic soy broth (TSB; BD, Franklin Lakes, NJ, USA) was supplemented with 1% (w/v) glucose (TSB-Glu). Tryptic soy agar (TSA; BD) was used for bacterial growth. The Mueller-Hinton broth (MHB; BD) and Mueller-Hinton agar (MHA; BD) was used for susceptibility tests. All strains were maintained in 10% (v/v) glycerol stocks and stored at − 80 °C.
(§2) The antibacterial activity of 6a and its derivatives 7a, 7b, and 7c was tested as previously described using paper disks impregnated with each compound[13]. The derivatives were also analyzed quantitatively using microdilution assays in 96-well inert polystyrene microtiter plates (Nuclon; Nalge Nunc International, Rochester, NY, USA) to determine the minimal inhibitory concentration (MIC)[14]. Biological control, as well as growth conditions, were performed following CLSI recommendation[15],[16]. […] Controls were also performed using 2% (v/v) DMSO only.
On the technique in general: In broth dilution the organism is exposed to a series of concentrations in liquid medium.

The subject of data set [2] is MRSA strain CR15-071 (USA100) cells persistent to vancomycin. The data set is described as follows: Vancomycin-persistent cells, high bacterial load on TSA plates. To be noted: 1MIC derivative (128 µg/mL) plus vancomycin 4MIC (8 µg/mL), ~10^9 CFU/ml. Type of data set: cell-based, Staphylococcus aureus. As to the method:
For this test, we choose the MRSA strain CR15-071 representative of the ST5-SCCmecII lineage (NY/Japan-USA100 clone), since this MRSA has replaced the ST239-SCCmecIII (the Brazilian clone) in this country, and is now the most frequent MRSA lineage in Brazilian hospitals. […]. The plates were incubated at 37 °C/24 h before being examined. […]. Bacterial growth was determined by removing persistent cells from the plates and determining UFC/ml. Controls were also performed using 2% (v/v) DMSO only. Three independent experiments were performed in triplicate.

The test system of a further data set is MRSA BEC (BMB9393). The data set is described as follows: microbe, parasite or virus in culture. Type of data set: cell-based, Staphylococcus aureus. The protocol:
For biofilm production, tryptic soy broth (TSB; BD, Franklin Lakes, NJ, USA) was supplemented with 1% (w/v) glucose (TSB-Glu). Tryptic soy agar (TSA; BD) was used for bacterial growth. The Mueller-Hinton broth (MHB; BD) and Mueller-Hinton agar (MHA; BD) was used for susceptibility tests. All strains were maintained in 10% (v/v) glycerol stocks and stored at − 80 °C.
The derivatives were also analyzed quantitatively using microdilution assays in 96-well inert polystyrene microtiter plates (Nuclon; Nalge Nunc International, Rochester, NY, USA) to determine the minimal inhibitory concentration (MIC)[14]. Biological control, as well as growth conditions, were performed following CLSI recommendation[15],[16]. […] Controls were also performed using 2% (v/v) DMSO only.

Data set [3] relates to S. aureus ATCC 25923. The data set is described as follows: Disk diffusion test. Type of data set: cell-based, Staphylococcus aureus.
Text: as §1, §2

A further data set in a line: Cytotoxicity assay (MTT). To be noted: African green monkey, Vero cell monolayers. The protocol: (§3) Plates were incubated for 1 h, the supernatant again removed, and 200 µL dimethyl sulfoxide (DMSO) were added to each well to dissolve the formazan crystals for 10 min. Absorbance was measured at 570 nm using an ELISA reader (Thermo Plate, TP-READER, Thermo Fisher Scientific). […] The selectivity index (SI) was calculated as follows: SI (µg/mL) = CC50/MIC[17]. Three independent experiments were performed in triplicate. Controls were performed using 2% (v/v) DMSO only.

The test system of the next data set is atlA. The data set is described as follows: Autolytic system: atlA real-time qRT-PCR. Type of data set: cell-based, Staphylococcus aureus.
A short description of another data set: in vitro. To be noted: human, pH 7.4. As to the method:
(§4) Erythrocytes were collected from three human volunteers in a citrate tube and washed three times (3×) with PBS (pH 7.4). All derivatives were incubated with the PBS-erythrocyte suspension for 3 h at 37 °C. The hemolysis with the release of hemoglobin was quantified by the spectrophotometric reading of the supernatant at 545 nm. Hemolysis less than 10% represented hemocompatibility and non-toxicity against erythrocyte membranes. For the positive control, the human erythrocytes were lysed with 1% (v/v) Triton X-100. The negative control was performed with 1% (v/v) DMSO only (final concentration). […] All methods were carried out in accordance with relevant guidelines and regulations. In addition, informed consent was obtained from all volunteers. Three independent experiments were performed in triplicate.

For the next data set, the system named is Vero cell line. The data set is described as follows: Cytotoxicity assay (MTT). To be noted: Vero cells, 24 h, MTT. The protocol:
as §3

The subject of a further data set is human erythrocytes. The data set is described as follows: Hemocompatibility assay. To be noted: highest concentration evaluated (300 µg/mL), 3 h at 37 °C. As to the method: as §4
The mark [4] stands for this setting: Table 2, used for SI, strain not given, values of 6a-7c equal those for BEC (BMB9393).

Values after ≈ are worked out from the molar mass of the structure shown. Read-outs that look alike come from different tables or passages of the source.

In the case of `CCOCNC1=CC(=O)c2ccccc2C1=O` [7b, 2-(ethoxymethyl)-amino-1,4-naphthoquinone], the MIC came to 64 µg/mL (≈ 277 µM) with S. aureus ATCC 25923 [1] (Staphylococcus aureus, ATCC25923, control strain S. aureus ATCC 25923, read-out: MIC); 128 µg/mL (≈ 554 µM) with MRSA BEC (BMB9393) (Staphylococcus aureus, MRSA); 128 µg/mL (≈ 554 µM) against MRSA BEC (BMB9393) (setting [4]). Moreover, the “Reduction in the total of vancomycin-persistent cells” value in data set [2] is reported as “complete inhibition of persistent cells”. The Inhibition zone in the data set on S. aureus ATCC 25923 [3] is listed as 12.5±3.5 mm. Moreover, in “Cytotoxicity assay (MTT)”, the half-maximal cytotoxic concentration (CC50) at 24 h came to 219.9 ± 1.87 µg/mL (≈ 951 µM). Moreover, the “Increase in atlA transcripts” value with atlA worked out at 3.5 times. The hemolysis at 3 h, 300 µg/mL in “in vitro” is 2.7 ± 0.3%.
As for `C#CCOCNC1=CC(=O)c2ccccc2C1=O` [7c, 2-(propynyloxymethyl)-amino-1,4-naphthoquinone], the MIC worked out at 16 µg/mL (≈ 66.3 µM) in the data set on S. aureus ATCC 25923 [1] (control strain S. aureus ATCC 25923); 64 µg/mL (≈ 265 µM) with MRSA BEC (BMB9393) (setting [4]); 64 µg/mL (≈ 265 µM) with MRSA BEC (BMB9393) (broth microdilution, BEC (BMB9393)). The compound further gave an Inhibition zone in the data set with S. aureus ATCC 25923 [3] of 14±3.4 mm. The same compound had a half-maximal cytotoxic concentration (CC50) with Vero cell line of 20.15 ± 2.11 µg/mL (≈ 83.5 µM). Further, in the data set with atlA, the “Increase in atlA transcripts” value is on record as “three-fold increase”. For the same compound, in the data set on human erythrocytes, the “Hemolysis, maximum values” was 1.5 ± 0.5%.
